How the values were obtained:
Format in all cases: in vivo
[1] = tested on: pigweed (Amaranthus retroflexus); assay: Test C pre-/postemergence greenhouse test; conditions: scale 0 to 100
Outline: (§1)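 Formulation: non-phytotoxic solvent mixture including surfactant. Preemergence on seeds in silt loam; postemergence on plants 2 to 18 cm tall in peat-based potting medium. Controls held alongside; visual evaluation at 13 to 21 d, 0 = no effect, 100 = complete control.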

[2] = tested on: large crabgrass (DIGSA; Digitaria sanguinalis); assay: Test G preemergence, mixtures of Cpd. No. 20 with (b15C1)
Source text: (§2) This test evaluated the effect of mixtures of Cpd. No. 20 with (b15C1) on several plant species. Seeds of plant species selected from corn (ZEAMD; Zea mays, cv. ‘Pioneer 1184’), soybean (GLXMA; Glycine max, cv. Pioneer 35T58), giant foxtail (SETFA; Setaria faberi), barnyardgrass (ECHCG; Echinochloa crus-galli), large crabgrass (DIGSA; Digitaria sanguinalis), palmer amaranth (AMAPA; Amaranthus palmeri), common waterhemp (AMATU; Amaranthus rudis), and common ragweed (AMBEL; Ambrosia artemisiifolia) were planted in pots containing Tama Silt Loam soil and treated preemergence with a directed soil spray using test chemicals formulated in a non-phytotoxic solvent mixture which included a surfactant.
(§3) Treated plants and untreated controls were maintained in a greenhouse for approximately 21 d, after which time all treated plants were compared to untreated controls and visually evaluated for injury. Plant response ratings, summarized in Table G, are based on a 0 to 100 scale where 0 is no effect and 100 is complete control. A dash (-) response means no test result. Test results are presented as a mean of 4 reps.

[3] = tested on: common ragweed (AMBEL; Ambrosia artemisiifolia); assay: as above
Source text: as §2, §3

[4] = tested on: common waterhemp (AMATU; Amaranthus rudis); assay: as above
Source text: as §2, §3

[5] = tested on: barnyardgrass (ECHCG; Echinochloa crus-galli); assay: as above
Source text: as §2, §3

[6] = tested on: corn (ZEAMD; Zea mays, cv. ‘Pioneer 1184’); assay: as above
Source text: as §2, §3

[7] = tested on: soybean (GLXMA; Glycine max, cv. Pioneer 35T58); assay: as above
Source text: as §2, §3

[8] = tested on: palmer amaranth (AMAPA; Amaranthus palmeri); assay: as above
Source text: as §2, §3

[9] = tested on: giant foxtail (SETFA; Setaria faberi); assay: as above
Source text: as §2, §3

[10] = tested on: horseweed (Conyza canadensis); assay: Test C postemergence greenhouse test; conditions: scale 0 to 100
Outline: as §1

[11] = tested on: Bulrush, Japanese (Scirpus juncoides); assay: Test C flooded paddy test; conditions: Flood, scale 0 to 100
Source text: Plant species in the flooded paddy test consisted of rice (transplanted and water seeded, Oryza sativa), sedge, umbrella (small-flower umbrella sedge, Cyperus difformis), ducksalad (Heteranthera limosa), Bulrush, Japanese (Scirpus juncoides) and barnyardgrass (Echinochloa crus-galli) grown to the 2-leaf stage for testing. At time of treatment, test pots were flooded to 3 cm above the soil surface, treated by application of test compounds directly to the paddy water, and then maintained at that water depth for the duration of the test. Treated plants and controls were maintained in a greenhouse for 13 to 15 d, after which time all species were compared to controls and visually evaluated. Plant response ratings, summarized in Table C are based on a scale of 0 to 100 where 0 is no effect and 100 is complete control. A dash (-) response means no test result.

[12] = tested on: nightshade (eastern black nightshade, Solanum ptycanthum); assay: Test C postemergence greenhouse test; conditions: scale 0 to 100
Outline: as §1

Cc1ccc2ccc(C)c(-c3c(O)c(Cl)nn(C)c3=O)c2c1 [Cpd. No. 20, 6-chloro-4-(2,7-dimethyl-1-naphthalenyl)-5-hydroxy-2-methyl-3(2H)-pyridazinone]
Plant response rating, Pigweed ([1]; Postemergence, 16 g ai/ha): 90 | Plant response rating, Pigweed ([1]; Postemergence, 31 g ai/ha): 95 | Plant response rating, Pigweed ([1]; Postemergence, 62 g ai/ha): 95 | Plant response rating, Pigweed ([1]; Postemergence, 125 g ai/ha): 98 | Plant response rating, Pigweed ([1]; Preemergence, 31 g ai/ha): 100 | Plant response rating, Pigweed ([1]; Preemergence, 61 g ai/ha): 100 | Plant response rating, Pigweed ([1]; Preemergence, 62 g ai/ha): 100 | Plant response rating, Pigweed ([1]; Preemergence, 125 g ai/ha): 100 | Plant response rating (0 to 100 scale) ([2]; Cpd. No. 20 16 g a.i./ha alone): 9 | Plant response rating (0 to 100 scale) ([2]; Cpd. No. 20 31 g a.i./ha alone): 11 | Plant response rating (0 to 100 scale) ([2]; Cpd. No. 20 62 g a.i./ha alone): 25 | Plant response rating (0 to 100 scale) ([3]; Cpd. No. 20 16 g a.i./ha alone): 48 | Plant response rating (0 to 100 scale) ([3]; Cpd. No. 20 31 g a.i./ha alone): 73 | Plant response rating (0 to 100 scale) ([3]; Cpd. No. 20 62 g a.i./ha alone): 74 | Plant response rating (0 to 100 scale) ([4]; Cpd. No. 20 16 g a.i./ha alone): 55 | Plant response rating (0 to 100 scale) ([4]; Cpd. No. 20 31 g a.i./ha alone): 96 | Plant response rating (0 to 100 scale) ([4]; Cpd. No. 20 62 g a.i./ha alone): 99 | Plant response rating (0 to 100 scale) ([5]; Cpd. No. 20 16 g a.i./ha alone): 21 | Plant response rating (0 to 100 scale) ([5]; Cpd. No. 20 31 g a.i./ha alone): 51 | Plant response rating (0 to 100 scale) ([5]; Cpd. No. 20 62 g a.i./ha alone): 70 | Plant response rating (0 to 100 scale) ([6]; Cpd. No. 20 16 g a.i./ha alone): 0 | Plant response rating (0 to 100 scale) ([6]; Cpd. No. 20 31 g a.i./ha alone): 0 | Plant response rating (0 to 100 scale) ([6]; Cpd. No. 20 62 g a.i./ha alone): 0 | Plant response rating (0 to 100 scale) ([7]; Cpd. No. 20 16 g a.i./ha alone): 0 | Plant response rating (0 to 100 scale) ([7]; Cpd. No. 20 31 g a.i./ha alone): 18 | Plant response rating (0 to 100 scale) ([7]; Cpd. No. 20 62 g a.i./ha alone): 24 | Plant response rating (0 to 100 scale) ([8]; Cpd. No. 20 16 g a.i./ha alone): 73 | Plant response rating (0 to 100 scale) ([8]; Cpd. No. 20 31 g a.i./ha alone): 70 | Plant response rating (0 to 100 scale) ([8]; Cpd. No. 20 62 g a.i./ha alone): 78 | Plant response rating (0 to 100 scale) ([9]; Cpd. No. 20 16 g a.i./ha alone): 66 | Plant response rating (0 to 100 scale) ([9]; Cpd. No. 20 31 g a.i./ha alone): 88 | Plant response rating (0 to 100 scale) ([9]; Cpd. No. 20 62 g a.i./ha alone): 74

Cc1ccc2ccc(F)cc2c1-c1c(O)c(Cl)nn(C)c1=O [Cpd. No. 21]
Plant response rating, Horseweed ([10]; 16 g ai/ha): 80 | Plant response rating, Horseweed ([10]; 31 g ai/ha): 85 | Plant response rating, Horseweed ([10]; 62 g ai/ha): 90 | Plant response rating, Horseweed ([10]; 125 g ai/ha): 90

Cc1cc(Cl)c2ccccc2c1-c1c(O)c(Cl)nn(C)c1=O [Cpd. No. 65]
Plant response rating, Bulrush, Japanese ([11]; 62 g ai/ha): 75 | Plant response rating, Bulrush, Japanese ([11]; 125 g ai/ha): 90 | Plant response rating, Nightshade ([12]; 16 g ai/ha): 90 | Plant response rating, Nightshade ([12]; 31 g ai/ha): 100 | Plant response rating, Nightshade ([12]; 62 g ai/ha): 100 | Plant response rating, Nightshade ([12]; 125 g ai/ha): 100

Reference: US12435044B2, “Pyridazinone herbicides and pyridazinone intermediates used to prepare a herbicide” (FMC Corporation, priority 2018, dated 2025)
